Results as given in ChEMBL document CHEMBL3885881, “DrugMatrix”.

Species: Rattus norvegicus
Assay type: toxicity, organism-based, Sprague-Dawley
Conditions: in vivo, po, route oral GAVAGE, […]; for ABSOLUTE EOSINOPHIL / ABSOLUTE LYMPHOCYTE / ABSOLUTE MONOCYTE / ABSOLUTE SEGMENTED NEUTROPHIL / BASOPHIL / EOSINOPHIL / ERYTHROCYTE COUNT / HEMATOCRIT / HEMOGLOBIN / LEUKOCYTE COUNT / LYMPHOCYTE / MEAN CORPUSCULAR HEMOGLOBIN / MEAN CORPUSCULAR HEMOGLOBIN CONCENTRATION / MEAN CORPUSCULAR VOLUME / MONOCYTE / NEUTROPHIL / NUCLEATED RED BLOOD CELLS / PLATELET COUNT: tissue Blood; for ALANINE AMINOTRANSFERASE / ALBUMIN / ALKALINE PHOSPHATASE / ASPARTATE AMINOTRANSFERASE / BLOOD UREA NITROGEN / CARBON DIOXIDE / CHLORIDE / CHOLESTEROL / CREATINE PHOSPHOKINASE / CREATININE / GLUCOSE / LACTATE DEHYDROGENASE / LIPASE / PHOSPHORUS / POTASSIUM / SODIUM / TOTAL BILIRUBIN / TOTAL PROTEIN / URIC ACID: tissue Plasma
[1] = 30 mg/kg, 24 h, dose level Low, time 1 day
[2] = 60 mg/kg, 6 h, dose level High, time 0.25 day
[3] = 60 mg/kg, 24 h, dose level High, time 1 day

Description: DrugMatrix - Regimen: Single

## S=C=Nc1cccc2ccccc12 [1-NAPHTHYLISOTHIOCYANATE]
[1]
  ABSOLUTE EOSINOPHIL: 0 CELLS/uL
  ABSOLUTE LYMPHOCYTE: 8784 CELLS/uL
  ABSOLUTE MONOCYTE: 359.5 CELLS/uL
  ABSOLUTE SEGMENTED NEUTROPHIL: 2189.83 CELLS/uL
  BASOPHIL: 0%
  EOSINOPHIL: 0%
  ERYTHROCYTE COUNT: 5.45 x10E6/uL
  HEMATOCRIT: 34.5%
  HEMOGLOBIN: 13.67 G/DL
  LEUKOCYTE COUNT: 11.33 x10E3/uL
  LYMPHOCYTE: 78.33%
  MEAN CORPUSCULAR HEMOGLOBIN: 25.1 pg
  MEAN CORPUSCULAR HEMOGLOBIN CONCENTRATION: 39.62 G/DL
  MEAN CORPUSCULAR VOLUME: 63.35 fL
  MONOCYTE: 2.83%
  NEUTROPHIL: 18.83%
  NUCLEATED RED BLOOD CELLS: 0 /100WBC
  PLATELET COUNT: 1092.83 x10E3/uL
  ALANINE AMINOTRANSFERASE: 122 u/L
  ALBUMIN: 3.92 G/DL
  ALKALINE PHOSPHATASE: 386.33 u/L
  ASPARTATE AMINOTRANSFERASE: 211 u/L
  BLOOD UREA NITROGEN: 11.67 mg/dL
  CARBON DIOXIDE: 35.83 mmol/L
  CHLORIDE: 97.33 MEQ/L
  CHOLESTEROL: 83.5 mg/dL
  CREATINE PHOSPHOKINASE: 327.33 u/L
  CREATININE: 0.3 mg/dL
  GLUCOSE: 139.33 mg/dL
  LACTATE DEHYDROGENASE: 171 u/L
  LIPASE: 9.33 u/L
  PHOSPHORUS: 9.87 mg/dL
  POTASSIUM: 4.44 MEQ/L
  SODIUM: 145.25 MEQ/L
  TOTAL BILIRUBIN: 1.02 mg/dL
  TOTAL PROTEIN: 6.05 G/DL
  URIC ACID: 0.5 mg/dL
[2]
  ABSOLUTE EOSINOPHIL: 98.5 CELLS/uL
  ABSOLUTE LYMPHOCYTE: 11852.33 CELLS/uL
  ABSOLUTE MONOCYTE: 375.83 CELLS/uL
  ABSOLUTE SEGMENTED NEUTROPHIL: 1556.67 CELLS/uL
  BASOPHIL: 0%
  EOSINOPHIL: 0.67%
  ERYTHROCYTE COUNT: 5.41 x10E6/uL
  HEMATOCRIT: 36.93%
  HEMOGLOBIN: 13.93 G/DL
  LEUKOCYTE COUNT: 13.88 x10E3/uL
  LYMPHOCYTE: 84.83%
  MEAN CORPUSCULAR HEMOGLOBIN: 25.75 pg
  MEAN CORPUSCULAR HEMOGLOBIN CONCENTRATION: 37.73 G/DL
  MEAN CORPUSCULAR VOLUME: 68.25 fL
  MONOCYTE: 2.67%
  NEUTROPHIL: 11.83%
  NUCLEATED RED BLOOD CELLS: 0 /100WBC
  PLATELET COUNT: 1029 x10E3/uL
  ALANINE AMINOTRANSFERASE: 53.6 u/L
  ALBUMIN: 4.36 G/DL
  ALKALINE PHOSPHATASE: 315.4 u/L
  ASPARTATE AMINOTRANSFERASE: 106 u/L
  BLOOD UREA NITROGEN: 9.8 mg/dL
  CARBON DIOXIDE: 17.2 mmol/L
  CHLORIDE: 104.6 MEQ/L
  CHOLESTEROL: 74.6 mg/dL
  CREATINE PHOSPHOKINASE: 475 u/L
  CREATININE: 0.21 mg/dL
  GLUCOSE: 258.8 mg/dL
  LACTATE DEHYDROGENASE: 229.4 u/L
  LIPASE: 11 u/L
  PHOSPHORUS: 16.5 mg/dL
  POTASSIUM: 5.82 MEQ/L
  SODIUM: 145.04 MEQ/L
  TOTAL BILIRUBIN: 0.22 mg/dL
  TOTAL PROTEIN: 5.82 G/DL
  URIC ACID: 2.54 mg/dL
[3]
  ABSOLUTE EOSINOPHIL: 30 CELLS/uL
  ABSOLUTE LYMPHOCYTE: 8567.5 CELLS/uL
  ABSOLUTE MONOCYTE: 316 CELLS/uL
  ABSOLUTE SEGMENTED NEUTROPHIL: 2953.17 CELLS/uL
  BASOPHIL: 0%
  EOSINOPHIL: 0.33%
  ERYTHROCYTE COUNT: 5.57 x10E6/uL
  HEMATOCRIT: 34.8%
  HEMOGLOBIN: 13.72 G/DL
  LEUKOCYTE COUNT: 11.87 x10E3/uL
  LYMPHOCYTE: 71.17%
  MEAN CORPUSCULAR HEMOGLOBIN: 24.67 pg
  MEAN CORPUSCULAR HEMOGLOBIN CONCENTRATION: 39.42 G/DL
  MEAN CORPUSCULAR VOLUME: 62.55 fL
  MONOCYTE: 2.67%
  NEUTROPHIL: 25.83%
  NUCLEATED RED BLOOD CELLS: 0 /100WBC
  PLATELET COUNT: 1101.5 x10E3/uL
  ALANINE AMINOTRANSFERASE: 142.33 u/L
  ALBUMIN: 3.88 G/DL
  ALKALINE PHOSPHATASE: 513.83 u/L
  ASPARTATE AMINOTRANSFERASE: 288 u/L
  BLOOD UREA NITROGEN: 11.17 mg/dL
  CARBON DIOXIDE: 34.17 mmol/L
  CHLORIDE: 95.83 MEQ/L
  CHOLESTEROL: 118 mg/dL
  CREATINE PHOSPHOKINASE: 254.17 u/L
  CREATININE: 0.34 mg/dL
  GLUCOSE: 133.33 mg/dL
  LACTATE DEHYDROGENASE: 241.83 u/L
  LIPASE: 80.33 u/L
  PHOSPHORUS: 10.95 mg/dL
  POTASSIUM: 3.66 MEQ/L
  SODIUM: 144.63 MEQ/L
  TOTAL BILIRUBIN: 2.2 mg/dL
  TOTAL PROTEIN: 6.13 G/DL
  URIC ACID: 0.45 mg/dL
